In the NIST ThermoML archive (doi:10.1021/je900042q):
± gives the expanded uncertainty stated by the source.

Columns and labels:
[1] = Liquid; for mass density: 298.15 K, 101.33 kPa; for vapor or sublimation pressure: Ebulliometric method (Recirculating still)
[2] = refractive index (Na D-line) (dimensionless); settings: 298.15 K; 101.33 kPa; Liquid; Standard Abbe refractometry

mass density [1] | vapor or sublimation pressure ([1]; 355.35 K) | refractive index [2] | vapor or sublimation pressure ([1]; 341.49 K) | vapor or sublimation pressure ([1]; 418.69 K) | Structure (SMILES)
782.69 ± 0.24 kg/m3 | 101.3 ± 0.2 kPa | 1.3754 ± 0.0005 | – | – | CC(C)O [propan-2-ol]
718.32 ± 0.96 kg/m3 | – | 1.3652 ± 0.0005 | 101.3 ± 0.3 kPa | – | CC(C)OC(C)C [diisopropyl ether]
870.88 ± 0.65 kg/m3 | – | 1.3992 ± 0.0005 | – | 101.3 ± 0.3 kPa | CCCCOC(=O)CC [butyl propanoate]
